The results in this text go back to US10687531B2, “Urea and thiourea substituted bicycles derivatives as pesticides” (SYNGENTA PARTICIPATIONS AG, priority 2016, dated 2020).

One series deals with Plutella xylostella. In words: Example B2: Plutella xylostella (diamond back moth), artificial diet, L2 larvae. The format is in vivo. The note with it: 120 h, application rate 200 ppm, 5 days after infestation, read-out: effect in at least one of the two categories (mortality or growth inhibition). As for the experimental part:
Example B2: Plutella xylostella (Diamond Back Moth)
24-well microtiter plates with artificial diet were treated with aqueous test solutions prepared from 10,000 ppm DMSO stock solutions by pipetting. After drying, the plates were infested with L2 larvae (10 to 15 per well). The samples were assessed for mortality and growth inhibition in comparison to untreated samples 5 days after infestation.

For a further series, the system named is Diabrotica balteata. In words: Example B3: Diabrotica balteata (corn root worm), maize sprouts, L2 larvae. The format is in vivo. The conditions noted are these: 96 h, application rate 200 ppm, 4 days after infestation, read-out: effect in at least one of the two categories (mortality or growth inhibition). As for the experimental part: Example B3: Diabrotica balteata (Corn Root Worm)
Maize sprouts, placed on an agar layer in 24-well microtiter plates were treated with aqueous test solutions prepared from 10,000 ppm DMSO stock solutions by spraying. After drying, the plates were infested with L2 larvae (6 to 10 per well). The samples were assessed for mortality and growth inhibition in comparison to untreated samples 4 days after infestation.

For another series, the system named is Spodoptera littoralis. In words: Example B1: Spodoptera littoralis (Egyptian cotton leaf worm), cotton leaf disc spray, L1 larvae. The format is in vivo. The note with it: foliar, 72 h, application rate 200 ppm, 3 days after infestation, read-out: control (at least one of mortality, anti-feedant effect, growth inhibition). As for the experimental part:
Example B1: Spodoptera littoralis (Egyptian Cotton Leaf Worm)
Cotton leaf discs were placed on agar in 24-well microtiter plates and sprayed with aqueous test solutions prepared from 10,000 ppm DMSO stock solutions. After drying, the leaf discs were infested with five L1 larvae. The samples were assessed for mortality, anti-feedant effect, and growth inhibition in comparison to untreated samples 3 days after infestation. Control of Spodoptera littoralis by a test sample is when at least one of mortality, anti-feedant effect, and growth inhibition is higher than the untreated sample.

The subject of series [1] is Frankliniella occidentalis. The experiment in a line: Example B6: Frankliniella occidentalis (western flower thrips), sunflower leaf disc spray. In kind it is in vivo. The note with it: foliar, 168 h, application rate 200 ppm, 7 days after infestation, mixed ages. As for the experimental part:
Example B6: Frankliniella occidentalis (Western Flower Thrips)
Sunflower leaf discs were placed on agar in 24-well microtiter plates and sprayed with aqueous test solutions prepared from 10,000 DMSO stock solutions. After drying the leaf discs were infested with a Frankliniella population of mixed ages. The samples were assessed for mortality 7 days after infestation.

In a further series the test system is Euschistus heros. The experiment in a line: Example B4: Euschistus heros, soybean leaf spray, N-2 nymphs. In kind it is in vivo. The conditions noted are these: 120 h, application rate 200 ppm, 5 days after infestation, read-out: effect in at least one of the two categories (mortality or growth inhibition). As for the experimental part:
Example B4: Euschistus heros
Soybean leaf on agar in 24-well microtiter plates were sprayed with aqueous test solutions prepared from 10,000 ppm DMSO stock solutions. After drying the leaf were infested with N-2 nymphs. The samples were assessed for growth inhibition in comparison to untreated samples 5 days after infestation.

Another series concerns Thrips tabaci. The experiment in a line: Example B5: Thrips tabaci (onion thrips), sunflower leaf disc spray. The conditions noted are these: foliar, 144 h, application rate 200 ppm, 6 days after infestation, mixed ages. In kind it is in vivo. As for the experimental part: Example B5: Thrips tabaci (Onion Thrips)
Sunflower leaf discs were placed on agar in 24-well microtiter plates and sprayed with aqueous test solutions prepared from 10,000 ppm DMSO stock solutions. After drying the leaf discs were infested with a thrips population of mixed ages. The samples were assessed for mortality 6 days after infestation.

Take `CC(C)c1ccccc1NC(=O)Nc1ccc2cc(-c3ncn(-c4ccc(OC(F)(F)F)cc4)n3)ccc2n1` [Compound P1.3, 1-(2-isopropylphenyl)-3-[6-[1-[4-(trifluoromethoxy)phenyl]-1,2,4-triazol-3-yl]-2-quinolyl]urea]: the percent control (mortality or growth inhibition) at 200 ppm with Plutella xylostella was at least 80%. For the same molecule, the percent effect (mortality or growth inhibition) at 200 ppm in the series on Diabrotica balteata was at least 80%.
With `CC(C)c1ccccc1NC(=S)Nc1ccc2cc(-c3ncn(-c4ccc(OC(F)(F)F)cc4)n3)ccc2n1` [Compound P1.4, 1-(2-isopropylphenyl)-3-[6-[1-[4-(trifluoromethoxy)phenyl]-1,2,4-triazol-3-yl]-2-quinolyl]thiourea], the control at 200 ppm in the series with Spodoptera littoralis was at least 80%. In addition, the percent control (mortality or growth inhibition) at 200 ppm in the series on Plutella xylostella was at least 80%. For the same molecule, the percent effect (mortality or growth inhibition) at 200 ppm with Diabrotica balteata is at least 80%.
The term mortality denotes the share of the test organisms that died. Low readings indicate a weak lethal effect, high ones a strong lethal effect. Turning to `CC(C)c1ccccc1N1CS/C1=N\c1ccc2cc(-c3ncn(-c4ccc(OC(F)(F)F)cc4)n3)ccc2n1` [Compound P2.1, 3-(2-isopropylphenyl)-N-[6-[1-[4-(trifluoromethoxy)phenyl]-1,2,4-triazol-3-yl]-2-quinolyl]-1,3-thiazetidin-2-imine], the control at 200 ppm with Spodoptera littoralis is at least 80%. Besides, the percent control (mortality or growth inhibition) at 200 ppm in the series with Plutella xylostella is at least 80%. The percent effect (mortality or growth inhibition) at 200 ppm in the series with Diabrotica balteata was at least 80%. In series [1], this molecule displayed a mortality at 200 ppm of at least 80%.
With `Cc1cs/c(=N\c2ccc3cc(-c4ncn(-c5ccc(OC(F)(F)F)cc5)n4)ccc3n2)n1-c1ccccc1C(C)C` [Compound P2.2, 3-(2-isopropylphenyl)-4-methyl-N-[6-[1-[4-(trifluoromethoxy)phenyl]-1,2,4-triazol-3-yl]-2-quinolyl]thiazol-2-imine], the control at 200 ppm with Spodoptera littoralis is at least 80%. Moreover, the percent control (mortality or growth inhibition) at 200 ppm in the series with Plutella xylostella is at least 80%. In addition, in the series on Diabrotica balteata, the percent effect (mortality or growth inhibition) at 200 ppm is at least 80%. Besides, in series [1], the mortality at 200 ppm was at least 80%.
As to `CC(C)c1ccccc1N1C(=O)CS/C1=N\c1ccc2cc(-c3ncn(-c4ccc(OC(F)(F)F)cc4)n3)ccc2n1` [Compound P2.3, (2Z)-3-(2-isopropylphenyl)-2-[[6-[1-[4-(trifluoromethoxy)phenyl]-1,2,4-triazol-3-yl]-2-quinolyl]imino]thiazolidin-4-one], the control at 200 ppm in the series with Spodoptera littoralis was at least 80%. Further, in the series on Plutella xylostella, the percent control (mortality or growth inhibition) at 200 ppm was at least 80%. For the same molecule, in the series on Diabrotica balteata, the percent effect (mortality or growth inhibition) at 200 ppm was at least 80%. The mortality at 200 ppm in series [1] was at least 80%.
`CC(C)c1ccccc1/N=C1/SCC(=O)N1c1ccc2cc(-c3ncn(-c4ccc(OC(F)(F)F)cc4)n3)ccc2n1` [Compound P2.4, (2E)-2-(2-isopropylphenyl)imino-3-[6-[1-[4-(trifluoromethoxy)phenyl]-1,2,4-triazol-3-yl]-2-quinolyl]thiazolidin-4-one]: in the series with Spodoptera littoralis, the control at 200 ppm was at least 80%. Further, the percent control (mortality or growth inhibition) at 200 ppm with Plutella xylostella was at least 80%. For the same molecule, the percent effect (mortality or growth inhibition) at 200 ppm in the series with Diabrotica balteata and in the series on Euschistus heros was at least 80% each time. Further, the mortality at 200 ppm (with Thrips tabaci; in series [1]) was at least 80% throughout.
What is called melting point is the temperature, or range, at which the solid turns liquid. `Cc1cccc(C)c1NC(=O)Nc1ncc2cc(-c3ncn(-c4ccc(OC(F)(F)F)cc4)n3)ccc2n1` [Compound P2.6, 1-(2,6-dimethylphenyl)-3-[6-[1-[4-(trifluoromethoxy)phenyl]-1,2,4-triazol-3-yl]quinazolin-2-yl]urea] showed a melting point of 247 to 249 °C.
As for `Cc1cccc(C)c1N1/C(=N/c2ncc3cc(-c4ncn(-c5ccc(OC(F)(F)F)cc5)n4)ccc3n2)SCC1(C)O` (stereo not shown) [Compound P2.7, (2Z)-3-(2,6-dimethylphenyl)-4-methyl-2-[6-[1-[4-(trifluoromethoxy)phenyl]-1,2,4-triazol-3-yl]quinazolin-2-yl]imino-thiazolidin-4-ol], the percent effect (mortality or growth inhibition) at 200 ppm in the series on Diabrotica balteata and with Euschistus heros was at least 80% throughout.
Take `Cc1cccc(C)c1N1CS/C1=N\c1ncc2cc(-c3ncn(-c4ccc(OC(F)(F)F)cc4)n3)ccc2n1` [Compound P2.8, 3-(2,6-dimethylphenyl)-N-[6-[1-[4-(trifluoromethoxy)phenyl]-1,2,4-triazol-3-yl]quinazolin-2-yl]-1,3-thiazetidin-2-imine]: the melting point was 227 to 229 °C.
As to `Cc1cccc(C)c1N1C(=O)CS/C1=N\c1ncc2cc(-c3ncn(-c4ccc(OC(F)(F)F)cc4)n3)ccc2n1` [Compound P2.9, (2Z)-3-(2,6-dimethylphenyl)-2-[6-[1-[4-(trifluoromethoxy)phenyl]-1,2,4-triazol-3-yl]quinazolin-2-yl]imino-thiazolidin-4-one], in the series on Spodoptera littoralis, the control at 200 ppm is at least 80%. For the same molecule, in the series with Plutella xylostella, the percent control (mortality or growth inhibition) at 200 ppm is at least 80%. The percent effect (mortality or growth inhibition) at 200 ppm in the series on Diabrotica balteata is at least 80%.
For the molecule `Cc1cccc(C)c1NC(=S)Nc1cnc2cc(-c3ncn(-c4ccc(OC(F)(F)F)cc4)n3)ccc2n1` [Compound P2.11, 1-(2,6-dimethylphenyl)-3-[6-[1-[4-(trifluoromethoxy)phenyl]-1,2,4-triazol-3-yl]quinoxalin-2-yl]thiourea], the control at 200 ppm in the series with Spodoptera littoralis was at least 80%. In addition, the percent control (mortality or growth inhibition) at 200 ppm in the series on Plutella xylostella was at least 80%. Moreover, the percent effect (mortality or growth inhibition) at 200 ppm with Diabrotica balteata is at least 80%.
With `Cc1cccc(C)c1N1CS/C1=N\c1cnc2cc(-c3ncn(-c4ccc(OC(F)(F)F)cc4)n3)ccc2n1` [Compound P2.12, 3-(2,6-dimethylphenyl)-N-[6-[1-[4-(trifluoromethoxy)phenyl]-1,2,4-triazol-3-yl]quinoxalin-2-yl]-1,3-thiazetidin-2-imine], the control at 200 ppm in the series with Spodoptera littoralis was at least 80%. In series [1], the mortality at 200 ppm was at least 80%.
For the molecule `Cc1cccc(C)c1NC(=S)Nc1ccc2cc(-c3ncn(-c4ccc(OC(F)(F)F)cc4)n3)ccc2c1` [Compound P2.13, 1-(2,6-dimethylphenyl)-3-[6-[1-[4-(trifluoromethoxy)phenyl]-1,2,4-triazol-3-yl]-2-naphthyl]thiourea], the control at 200 ppm in the series with Spodoptera littoralis was at least 80%. In addition, the percent control (mortality or growth inhibition) at 200 ppm in the series on Plutella xylostella is at least 80%. For the same molecule, the percent effect (mortality or growth inhibition) at 200 ppm in the series on Diabrotica balteata was at least 80%.
Turning to `Cc1cccc(C)c1N1CS/C1=N\c1nc2ccc(-c3ncn(-c4ccc(OC(F)(F)F)cc4)n3)cc2s1` [Compound P2.14, 3-(2,6-dimethylphenyl)-N-[6-[1-[4-(trifluoromethoxy)phenyl]-1,2,4-triazol-3-yl]-1,3-benzothiazol-2-yl]-1,3-thiazetidin-2-imine], in the series on Spodoptera littoralis, the control at 200 ppm is at least 80%. The percent control (mortality or growth inhibition) at 200 ppm in the series on Plutella xylostella was at least 80%. The mortality at 200 ppm with Thrips tabaci is at least 80%.
Regarding `Cc1cccc(C)c1/N=C1/SCN1c1nc2ccc(-c3ncn(-c4ccc(OC(F)(F)F)cc4)n3)cc2s1` [Compound P2.15, N-(2,6-dimethylphenyl)-3-[6-[1-[4-(trifluoromethoxy)phenyl]-1,2,4-triazol-3-yl]-1,3-benzothiazol-2-yl]-1,3-thiazetidin-2-imine], the melting point is above 250 °C.
Turning to `Cc1cccc(C)c1NC(=S)Nc1nc2ccc(-c3ncn(-c4ccc(OC(F)(F)F)cc4)n3)cc2s1` [Compound P2.17, 1-(2,6-dimethylphenyl)-3-[6-[1-[4-(trifluoromethoxy)phenyl]-1,2,4-triazol-3-yl]-1,3-benzothiazol-2-yl]thiourea], in the series on Spodoptera littoralis, the control at 200 ppm is at least 80%. Moreover, the percent control (mortality or growth inhibition) at 200 ppm in the series with Plutella xylostella was at least 80%. The percent effect (mortality or growth inhibition) at 200 ppm in the series with Diabrotica balteata and in the series on Euschistus heros was at least 80% each time.
